Data: US20060193786A1, “Pharmaceutical composition for intranasal administration containing a CGRP antagonist” (Boehringer Ingelheim Pharma GmbH & Co. KG, priority 2002, published 2006)

Experiment: Stability testing of more highly concentrated nasal spray solutions
Assay type: physicochemical
Conditions: for content of active substance (A): as free base
Method: Stability testing of more highly concentrated nasal spray solutions according to the invention:
The total decomposition which is high in some circumstances (particularly at 40° C.) is based on hydrolysis.
The content of active substance (A) given in Table 1 refers in each case to the free base originally weighed out.

[1] = active substance concentration 15, 3-month value, 25° C.
[2] = active substance concentration 15, 3-month value, 40° C.
[3] = active substance concentration 15, 6-month value, 25° C.
[4] = active substance concentration 15, 6-month value, 40° C.
[5] = active substance concentration 15, 6-week value, 25° C.
[6] = active substance concentration 15, 6-week value, 40° C.
[7] = active substance concentration 15, initial value
[8] = active substance concentration 20%, 3-month value, 25° C.
[9] = active substance concentration 20%, 3-month value, 40° C.
[10] = active substance concentration 20%, 6-month value, 25° C.
[11] = active substance concentration 20%, 6-month value, 40° C.
[12] = active substance concentration 20%, 6-week value, 25° C.
[13] = active substance concentration 20%, 6-week value, 40° C.
[14] = active substance concentration 20%, initial value
[15] = active substance concentration 30%, 3-month value, 25° C.
[16] = active substance concentration 30%, 3-month value, 40° C.
[17] = active substance concentration 30%, 6-month value, 25° C.
[18] = active substance concentration 30%, 6-month value, 40° C.
[19] = active substance concentration 30%, 6-week value, 25° C.
[20] = active substance concentration 30%, 6-week value, 40° C.
[21] = active substance concentration 30%, initial value

decomposition by oxidation [1]: 0.64% | overall decomposition [1]: 1.69% | content of active substance (A) [1]: 147.7 mg/mL | decomposition by oxidation [2]: 0.55% | overall decomposition [2]: 8.22% | content of active substance (A) [2]: 139.4 mg/mL | decomposition by oxidation [3]: 0.82% | overall decomposition [3]: 2.07% | content of active substance (A) [3]: 147.7 mg/mL | decomposition by oxidation [4]: 0.78% | overall decomposition [4]: 15.33% | content of active substance (A) [4]: 131.7 mg/mL | decomposition by oxidation [5]: 0.72% | overall decomposition [5]: 1.60% | content of active substance (A) [5]: 148.1 mg/mL | decomposition by oxidation [6]: 0.52% | overall decomposition [6]: 4.46% | content of active substance (A) [6]: 142.3 mg/mL | decomposition by oxidation [7]: 0.59% | overall decomposition [7]: 1.23% | content of active substance (A) [7]: 148.6 mg/mL | decomposition by oxidation [8]: 0.53% | overall decomposition [8]: 1.50% | content of active substance (A) [8]: 202.8 mg/mL | decomposition by oxidation [9]: 0.47% | overall decomposition [9]: 8.23% | content of active substance (A) [9]: 191.4 mg/mL | decomposition by oxidation [10]: 0.77% | overall decomposition [10]: 1.99% | content of active substance (A) [10]: 202 mg/mL | decomposition by oxidation [11]: 0.74% | overall decomposition [11]: 14.61% | content of active substance (A) [11]: 182.8 mg/mL | decomposition by oxidation [12]: 0.54% | overall decomposition [12]: 1.09% | content of active substance (A) [12]: 198.7 mg/mL | decomposition by oxidation [13]: 0.55% | overall decomposition [13]: 3.97% | content of active substance (A) [13]: 192.1 mg/mL | decomposition by oxidation [14]: 0.56% | overall decomposition [14]: 1.27% | content of active substance (A) [14]: 197.9 mg/mL | decomposition by oxidation [15]: 0.60% | overall decomposition [15]: 1.48% | content of active substance (A) [15]: 270 mg/mL | decomposition by oxidation [16]: 0.59% | overall decomposition [16]: 7.81% | content of active substance (A) [16]: 260 mg/mL | decomposition by oxidation [17]: 0.91% | overall decomposition [17]: 2.04% | content of active substance (A) [17]: 273 mg/mL | decomposition by oxidation [18]: 0.84% | overall decomposition [18]: 13.36% | content of active substance (A) [18]: 246 mg/mL | decomposition by oxidation [19]: 0.62% | overall decomposition [19]: 1.19% | content of active substance (A) [19]: 264 mg/mL | decomposition by oxidation [20]: 0.58% | overall decomposition [20]: 3.95% | content of active substance (A) [20]: 260 mg/mL | decomposition by oxidation [21]: 0.56% | overall decomposition [21]: 1.20% | content of active substance (A) [21]: 269 mg/mL
SMILES: NCCCC[C@H](NC(=O)[C@@H](Cc1cc(Br)c(O)c(Br)c1)NC(=O)N1CCC(N2Cc3ccccc3NC2=O)CC1)C(=O)N1CCN(c2ccncc2)CC1 [(A), 1-[N^2-[3,5-dibromo-N-[[4-(3,4-dihydro-2(1H)-oxoquinazolin-3-yl)-1-piperidinyl]carbonyl]-D-tyrosyl]-L-lysyl]-4-(4-pyridinyl)-piperazine]
oxidative decomposition (hydrochloride in aqueous solution, over a long period): virtually unchanged or increases only slightly
